Results published in BindingDB's records for doi:10.1016/j.bmcl.2011.03.071 (University of Canterbury, 2011).

Target: Phospho-2-dehydro-3-deoxyheptonate aldolase (Escherichia coli, UniProt C3TIE2)
Experiment: Competitive inhibition of recombinant Escherichia coli DAH7P synthase using PEP as substrate by Michaelis-Menten equation analysis using UV-visible spectrophotometry

Sequence of Phospho-2-dehydro-3-deoxyheptonate aldolase (C3TIE2 1-350): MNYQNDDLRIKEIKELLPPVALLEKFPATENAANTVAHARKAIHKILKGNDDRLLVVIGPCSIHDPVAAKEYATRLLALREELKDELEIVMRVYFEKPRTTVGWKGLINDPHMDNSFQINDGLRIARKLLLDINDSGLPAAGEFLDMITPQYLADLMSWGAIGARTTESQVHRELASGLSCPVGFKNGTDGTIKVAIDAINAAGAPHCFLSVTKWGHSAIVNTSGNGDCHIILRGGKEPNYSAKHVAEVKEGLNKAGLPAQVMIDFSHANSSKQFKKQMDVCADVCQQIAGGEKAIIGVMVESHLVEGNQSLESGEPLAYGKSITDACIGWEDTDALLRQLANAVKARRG

Compound: O=C(O)C(=CCCCCOP(=O)(O)O)CP(=O)(O)O
- Ki: 154 µM
